How the values were obtained:
Experiment in all cases: pIC50, kinobeads binding competition
CDK6 = CDK6 (UniProt Q00534)
Method in brief: (§1)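 Fold changes relative to vehicle, from biological duplicates, were fitted with logistic dose-response models in the R drc package to give pIC50. These fold changes came from TMT10 LC-MS/MS quantification of digested Kinobeads-bound proteins. Compound was applied at nine concentrations (top 30 μM) either to live Jurkat cells in 1:4 steps for 60 min at 37 °C before lysis, or to Jurkat lysate or a 1:1:1:1 HEK293/K-562/HepG2/placenta lysate mix in 1:5 steps for 60 min at 4 °C.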

UniProt P46734 = biological target: T1, UniProt P46734
T1 sequence (whole entry): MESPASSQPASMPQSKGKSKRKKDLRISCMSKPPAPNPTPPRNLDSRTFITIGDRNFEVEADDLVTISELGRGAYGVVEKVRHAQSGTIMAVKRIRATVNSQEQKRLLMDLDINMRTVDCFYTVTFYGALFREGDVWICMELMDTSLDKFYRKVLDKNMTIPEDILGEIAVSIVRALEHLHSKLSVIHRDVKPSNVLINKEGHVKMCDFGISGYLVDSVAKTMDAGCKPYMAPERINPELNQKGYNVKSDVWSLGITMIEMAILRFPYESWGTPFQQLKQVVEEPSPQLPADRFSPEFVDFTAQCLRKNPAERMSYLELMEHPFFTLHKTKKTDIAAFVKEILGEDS
Method in brief: as §1

UniProt Q15139 = biological target: T2, UniProt Q15139; details: cell material: Lysate mix
T2 sequence (whole entry): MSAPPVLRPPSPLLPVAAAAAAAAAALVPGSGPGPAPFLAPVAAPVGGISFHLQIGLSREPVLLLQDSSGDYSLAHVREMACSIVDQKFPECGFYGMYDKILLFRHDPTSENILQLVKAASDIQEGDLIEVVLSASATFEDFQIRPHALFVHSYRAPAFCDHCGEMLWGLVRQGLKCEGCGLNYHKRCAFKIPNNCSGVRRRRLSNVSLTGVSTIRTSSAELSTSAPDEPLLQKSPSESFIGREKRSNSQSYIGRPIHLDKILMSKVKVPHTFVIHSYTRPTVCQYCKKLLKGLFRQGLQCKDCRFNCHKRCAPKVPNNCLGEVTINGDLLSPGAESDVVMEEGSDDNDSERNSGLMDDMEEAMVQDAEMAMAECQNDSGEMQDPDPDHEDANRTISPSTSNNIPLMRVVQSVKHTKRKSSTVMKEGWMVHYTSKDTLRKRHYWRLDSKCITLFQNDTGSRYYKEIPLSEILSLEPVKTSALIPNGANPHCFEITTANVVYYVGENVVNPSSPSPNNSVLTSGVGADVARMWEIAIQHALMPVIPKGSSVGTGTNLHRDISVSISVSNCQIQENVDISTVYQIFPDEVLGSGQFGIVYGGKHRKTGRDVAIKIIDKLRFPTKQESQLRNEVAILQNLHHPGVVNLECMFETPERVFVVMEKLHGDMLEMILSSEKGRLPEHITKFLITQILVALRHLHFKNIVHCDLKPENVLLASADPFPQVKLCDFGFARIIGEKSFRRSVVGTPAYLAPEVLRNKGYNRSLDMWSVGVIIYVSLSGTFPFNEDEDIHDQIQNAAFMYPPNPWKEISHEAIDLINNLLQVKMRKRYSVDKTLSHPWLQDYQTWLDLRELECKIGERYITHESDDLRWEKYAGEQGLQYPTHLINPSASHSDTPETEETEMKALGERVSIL
Method in brief: as §1

IRAK1 = IRAK1 (UniProt P51617)
Method in brief: as §1

TGFBR1 = biological target: T3, TGFBR1 (UniProt P36897)
T3 sequence (whole entry): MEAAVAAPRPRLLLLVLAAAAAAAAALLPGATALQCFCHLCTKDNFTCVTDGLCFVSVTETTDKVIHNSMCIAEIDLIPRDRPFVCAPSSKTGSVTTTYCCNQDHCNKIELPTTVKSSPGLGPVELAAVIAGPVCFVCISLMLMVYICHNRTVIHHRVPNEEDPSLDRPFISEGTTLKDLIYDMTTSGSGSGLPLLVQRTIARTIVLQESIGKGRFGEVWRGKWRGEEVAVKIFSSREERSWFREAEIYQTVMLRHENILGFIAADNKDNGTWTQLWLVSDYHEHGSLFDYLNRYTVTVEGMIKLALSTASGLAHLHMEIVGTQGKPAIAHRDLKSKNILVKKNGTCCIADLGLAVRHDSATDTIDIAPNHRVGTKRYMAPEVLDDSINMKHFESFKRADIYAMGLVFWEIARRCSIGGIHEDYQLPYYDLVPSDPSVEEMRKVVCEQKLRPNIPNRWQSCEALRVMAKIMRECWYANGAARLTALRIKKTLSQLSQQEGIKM
Method in brief: as §1

PRKCB = PRKCB (UniProt P05771)
Method in brief: as §1

DYRK1A = DYRK1A (UniProt Q13627)
Method in brief: as §1

UniProt O43318 = biological target: T4, UniProt O43318
T4 sequence (whole entry): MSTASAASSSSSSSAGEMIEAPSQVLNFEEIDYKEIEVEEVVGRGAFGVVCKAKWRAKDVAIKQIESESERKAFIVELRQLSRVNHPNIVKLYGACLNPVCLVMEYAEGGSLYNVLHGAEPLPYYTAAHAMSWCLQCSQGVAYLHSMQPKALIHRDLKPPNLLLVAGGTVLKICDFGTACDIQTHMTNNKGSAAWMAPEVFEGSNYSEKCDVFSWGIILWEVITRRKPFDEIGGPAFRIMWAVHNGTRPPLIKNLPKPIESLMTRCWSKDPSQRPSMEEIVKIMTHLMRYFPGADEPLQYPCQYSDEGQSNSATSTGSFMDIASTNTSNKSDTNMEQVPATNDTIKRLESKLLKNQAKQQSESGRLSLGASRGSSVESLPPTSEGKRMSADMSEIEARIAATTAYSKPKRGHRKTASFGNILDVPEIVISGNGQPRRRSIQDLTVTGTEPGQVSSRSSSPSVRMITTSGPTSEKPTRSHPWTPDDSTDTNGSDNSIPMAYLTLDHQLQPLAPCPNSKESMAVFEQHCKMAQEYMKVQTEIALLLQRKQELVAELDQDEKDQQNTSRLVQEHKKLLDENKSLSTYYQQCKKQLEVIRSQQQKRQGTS
Method in brief: as §1

UniProt Q16659 = biological target: UniProt Q16659
Method in brief: as §1

UniProt Q9BVS4 = biological target: UniProt Q9BVS4
Method in brief: as §1

ROCK2 = ROCK2 (UniProt O75116)
Method in brief: as §1

Sequence of IRAK1 (P51617 whole entry, looked up): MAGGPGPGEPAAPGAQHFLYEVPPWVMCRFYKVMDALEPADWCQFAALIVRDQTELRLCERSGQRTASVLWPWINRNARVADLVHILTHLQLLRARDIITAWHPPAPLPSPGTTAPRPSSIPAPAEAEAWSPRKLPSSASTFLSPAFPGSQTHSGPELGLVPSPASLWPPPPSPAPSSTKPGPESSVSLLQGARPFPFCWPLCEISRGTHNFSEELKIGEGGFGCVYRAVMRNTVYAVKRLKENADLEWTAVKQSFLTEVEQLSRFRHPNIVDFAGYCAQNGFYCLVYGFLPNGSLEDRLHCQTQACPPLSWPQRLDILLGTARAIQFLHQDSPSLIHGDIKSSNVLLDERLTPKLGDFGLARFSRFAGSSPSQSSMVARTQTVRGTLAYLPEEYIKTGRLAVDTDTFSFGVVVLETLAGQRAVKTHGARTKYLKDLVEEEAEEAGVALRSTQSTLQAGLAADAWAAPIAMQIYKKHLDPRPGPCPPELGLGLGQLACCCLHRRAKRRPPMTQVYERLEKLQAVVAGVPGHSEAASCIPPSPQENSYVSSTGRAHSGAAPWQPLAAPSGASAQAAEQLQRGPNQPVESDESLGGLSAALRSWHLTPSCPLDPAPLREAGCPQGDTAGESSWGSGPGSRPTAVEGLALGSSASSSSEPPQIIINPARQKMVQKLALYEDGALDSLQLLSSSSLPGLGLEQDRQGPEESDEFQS
Sequence of PRKCB (P05771 whole entry, looked up): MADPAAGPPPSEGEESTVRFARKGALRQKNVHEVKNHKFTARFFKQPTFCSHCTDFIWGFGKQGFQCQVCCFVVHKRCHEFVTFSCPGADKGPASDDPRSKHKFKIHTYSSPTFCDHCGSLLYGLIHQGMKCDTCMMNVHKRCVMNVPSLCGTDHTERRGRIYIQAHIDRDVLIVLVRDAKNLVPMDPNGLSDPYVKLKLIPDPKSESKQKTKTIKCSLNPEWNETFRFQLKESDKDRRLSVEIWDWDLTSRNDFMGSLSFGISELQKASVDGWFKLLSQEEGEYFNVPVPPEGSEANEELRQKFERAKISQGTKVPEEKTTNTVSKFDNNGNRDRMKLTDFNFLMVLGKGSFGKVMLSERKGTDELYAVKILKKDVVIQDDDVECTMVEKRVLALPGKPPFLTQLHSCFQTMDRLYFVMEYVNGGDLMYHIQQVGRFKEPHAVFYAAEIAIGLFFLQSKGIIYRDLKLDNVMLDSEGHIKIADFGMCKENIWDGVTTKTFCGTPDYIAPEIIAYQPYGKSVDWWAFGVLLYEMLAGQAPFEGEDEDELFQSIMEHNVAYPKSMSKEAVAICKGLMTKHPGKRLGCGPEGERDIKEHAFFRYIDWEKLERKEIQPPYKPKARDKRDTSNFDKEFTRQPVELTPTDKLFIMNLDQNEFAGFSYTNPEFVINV
Sequence of UniProt Q9BVS4 (Q9BVS4 whole entry, looked up): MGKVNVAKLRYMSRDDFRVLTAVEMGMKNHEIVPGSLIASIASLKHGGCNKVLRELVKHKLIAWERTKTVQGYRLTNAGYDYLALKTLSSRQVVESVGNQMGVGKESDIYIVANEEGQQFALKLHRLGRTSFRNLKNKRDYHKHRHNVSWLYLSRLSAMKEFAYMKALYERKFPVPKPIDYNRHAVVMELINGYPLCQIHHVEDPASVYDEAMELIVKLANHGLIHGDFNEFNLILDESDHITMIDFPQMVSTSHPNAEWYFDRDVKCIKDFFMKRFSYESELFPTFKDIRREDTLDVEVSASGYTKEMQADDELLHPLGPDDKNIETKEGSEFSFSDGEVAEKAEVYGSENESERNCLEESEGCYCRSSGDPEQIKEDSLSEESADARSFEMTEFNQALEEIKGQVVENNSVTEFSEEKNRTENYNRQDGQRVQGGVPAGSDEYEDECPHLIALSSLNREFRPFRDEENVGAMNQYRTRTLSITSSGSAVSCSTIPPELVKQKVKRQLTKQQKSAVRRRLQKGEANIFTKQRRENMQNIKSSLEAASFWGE
Sequence of UniProt Q16659 (Q16659 whole entry): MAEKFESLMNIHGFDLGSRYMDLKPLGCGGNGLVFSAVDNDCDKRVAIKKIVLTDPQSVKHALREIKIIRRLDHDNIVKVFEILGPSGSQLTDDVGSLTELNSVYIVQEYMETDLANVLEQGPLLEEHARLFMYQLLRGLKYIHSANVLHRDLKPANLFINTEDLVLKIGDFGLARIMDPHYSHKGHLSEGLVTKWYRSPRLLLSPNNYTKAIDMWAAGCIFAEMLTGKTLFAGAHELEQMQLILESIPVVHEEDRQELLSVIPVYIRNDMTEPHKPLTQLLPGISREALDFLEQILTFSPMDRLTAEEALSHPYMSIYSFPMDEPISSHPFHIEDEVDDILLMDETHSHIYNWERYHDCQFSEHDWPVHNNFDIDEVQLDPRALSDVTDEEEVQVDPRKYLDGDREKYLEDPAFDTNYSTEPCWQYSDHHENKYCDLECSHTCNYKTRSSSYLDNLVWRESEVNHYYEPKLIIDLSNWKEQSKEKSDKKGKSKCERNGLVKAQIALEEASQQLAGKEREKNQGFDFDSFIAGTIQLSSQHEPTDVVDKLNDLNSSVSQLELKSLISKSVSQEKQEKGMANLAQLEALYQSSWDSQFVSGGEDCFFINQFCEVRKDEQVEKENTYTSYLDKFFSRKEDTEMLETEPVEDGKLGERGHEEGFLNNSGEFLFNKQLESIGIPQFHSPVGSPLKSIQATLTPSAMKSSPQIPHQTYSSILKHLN
Sequence of CDK6 (Q00534 whole entry): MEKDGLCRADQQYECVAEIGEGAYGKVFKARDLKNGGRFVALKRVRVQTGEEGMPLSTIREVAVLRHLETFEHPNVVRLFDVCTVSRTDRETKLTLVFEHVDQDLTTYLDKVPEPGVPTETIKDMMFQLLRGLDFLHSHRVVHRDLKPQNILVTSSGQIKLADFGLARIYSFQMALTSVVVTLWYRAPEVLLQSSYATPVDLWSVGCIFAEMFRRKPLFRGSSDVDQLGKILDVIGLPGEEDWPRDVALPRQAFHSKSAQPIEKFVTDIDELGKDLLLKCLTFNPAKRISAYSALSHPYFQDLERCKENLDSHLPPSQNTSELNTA
Sequence of ROCK2 (O75116 whole entry, looked up): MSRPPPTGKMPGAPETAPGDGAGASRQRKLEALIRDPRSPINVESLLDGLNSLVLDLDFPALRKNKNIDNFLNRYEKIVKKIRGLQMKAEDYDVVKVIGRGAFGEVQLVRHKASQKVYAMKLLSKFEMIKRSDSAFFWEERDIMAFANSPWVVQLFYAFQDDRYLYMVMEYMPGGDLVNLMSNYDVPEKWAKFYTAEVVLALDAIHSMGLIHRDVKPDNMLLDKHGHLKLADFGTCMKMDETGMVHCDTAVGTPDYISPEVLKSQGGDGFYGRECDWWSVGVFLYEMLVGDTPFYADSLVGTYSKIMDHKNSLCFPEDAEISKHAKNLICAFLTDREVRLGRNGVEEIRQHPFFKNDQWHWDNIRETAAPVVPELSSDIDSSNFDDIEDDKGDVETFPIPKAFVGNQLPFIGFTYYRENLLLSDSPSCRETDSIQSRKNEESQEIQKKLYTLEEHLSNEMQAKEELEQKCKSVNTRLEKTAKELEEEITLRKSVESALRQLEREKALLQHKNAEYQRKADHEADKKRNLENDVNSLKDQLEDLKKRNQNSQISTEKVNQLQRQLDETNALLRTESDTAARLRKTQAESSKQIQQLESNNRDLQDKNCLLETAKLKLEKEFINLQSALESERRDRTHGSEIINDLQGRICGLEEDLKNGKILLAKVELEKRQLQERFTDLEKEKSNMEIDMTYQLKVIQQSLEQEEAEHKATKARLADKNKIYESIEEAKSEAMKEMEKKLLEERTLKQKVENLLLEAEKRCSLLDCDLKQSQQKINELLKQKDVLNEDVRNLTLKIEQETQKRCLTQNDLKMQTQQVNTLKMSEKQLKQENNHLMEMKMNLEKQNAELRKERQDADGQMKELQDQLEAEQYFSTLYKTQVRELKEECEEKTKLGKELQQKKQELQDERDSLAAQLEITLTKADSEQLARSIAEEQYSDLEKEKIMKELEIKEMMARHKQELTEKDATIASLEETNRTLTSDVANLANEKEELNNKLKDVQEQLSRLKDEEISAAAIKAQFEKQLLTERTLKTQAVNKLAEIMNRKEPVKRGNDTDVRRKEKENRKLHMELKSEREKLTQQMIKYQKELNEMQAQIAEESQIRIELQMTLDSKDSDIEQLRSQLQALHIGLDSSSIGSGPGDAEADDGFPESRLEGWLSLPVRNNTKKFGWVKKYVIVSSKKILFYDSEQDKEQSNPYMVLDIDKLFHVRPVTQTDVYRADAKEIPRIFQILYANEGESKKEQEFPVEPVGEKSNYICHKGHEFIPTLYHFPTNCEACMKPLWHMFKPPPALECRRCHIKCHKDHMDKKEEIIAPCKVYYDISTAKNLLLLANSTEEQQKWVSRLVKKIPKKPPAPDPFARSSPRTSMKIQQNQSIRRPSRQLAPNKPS

Compound | pIC50 (CDK6; cell material: Jurkat cells) | pIC50 (CDK6; cell material: Jurkat lysate) | pIC50 (CDK6; cell material: Lysate mix) | pIC50 (UniProt P46734; cell material: Jurkat cells) | pIC50 (UniProt P46734; cell material: Lysate mix) | pIC50 (UniProt Q15139) | pIC50 (IRAK1; cell material: Jurkat cells) | pIC50 (IRAK1; cell material: Jurkat lysate) | pIC50 (IRAK1; cell material: Lysate mix) | pIC50 (TGFBR1; cell material: Jurkat cells) | pIC50 (TGFBR1; cell material: Jurkat lysate) | pIC50 (TGFBR1; cell material: Lysate mix) | pIC50 (PRKCB; cell material: Jurkat cells) | pIC50 (PRKCB; cell material: Jurkat lysate) | pIC50 (PRKCB; cell material: Lysate mix) | pIC50 (DYRK1A; cell material: Jurkat cells) | pIC50 (DYRK1A; cell material: Jurkat lysate) | pIC50 (UniProt O43318; cell material: Jurkat cells) | pIC50 (UniProt O43318; cell material: Jurkat lysate) | pIC50 (UniProt O43318; cell material: Lysate mix) | pIC50 (UniProt Q16659; cell material: Jurkat cells) | pIC50 (UniProt Q16659; cell material: Jurkat lysate) | pIC50 (UniProt Q16659; cell material: Lysate mix) | pIC50 (UniProt Q9BVS4; cell material: Jurkat cells) | pIC50 (UniProt Q9BVS4; cell material: Jurkat lysate) | pIC50 (UniProt Q9BVS4; cell material: Lysate mix) | pIC50 (ROCK2; cell material: Jurkat cells) | pIC50 (ROCK2; cell material: Lysate mix) | pIC50 (DYRK1A; cell material: Lysate mix) | pIC50 (UniProt P46734; cell material: Jurkat lysate)
C#CCNC(=O)c1cc(Nc2cc(C3CC3)[nH]n2)nc(N2CCN(Cc3ccc(S(=O)(=O)F)cc3)CC2)n1 | 6.84 | 5.43 | 5.58 | 5.54 | 4.87 | < 4.52 | < 4.52 | 5.37 | 5.96 | 5.75 | 4.84 | 5.46 | 5.46 | < 4.52 | < 4.52 | 5.41 | < 4.52 | 5.87 | < 4.52 | < 4.52 | < 4.52 | < 4.52 | < 4.52 | 5.12 | < 4.52 | < 4.52 | 4.76 | < 4.52 | – | –
C#CCNC(=O)c1cc(Nc2cc(C)[nH]n2)nc(N2CCN(Cc3ccc(S(=O)(=O)F)cc3)CC2)n1 | – | – | 5.06 | – | < 4.52 | < 4.52 | – | – | 5.11 | – | – | 4.71 | – | – | < 4.52 | – | – | – | – | < 4.52 | – | – | < 4.52 | – | – | < 4.52 | – | < 4.52 | < 4.52 | –
Cc1cc(Nc2cc(C(=O)NCCNC(=O)OC3CC/C=C/CCC3)nc(N3CCN(Cc4ccc(S(=O)(=O)F)cc4)CC3)n2)n[nH]1 (stereo not given) | – | – | < 4.52 | – | < 4.52 | < 4.52 | – | – | < 4.52 | – | – | < 4.52 | – | – | < 4.52 | – | – | – | – | < 4.52 | – | – | < 4.52 | – | – | < 4.52 | – | < 4.52 | < 4.52 | –
O=C(NCCNC(=O)c1cc(Nc2cc(C3CC3)[nH]n2)nc(N2CCN(Cc3ccc(S(=O)(=O)F)cc3)CC2)n1)OC1CC/C=C/CCC1 (stereo not given) | 6.38 | < 4.52 | < 4.52 | < 4.52 | < 4.52 | < 4.52 | 5.53 | < 4.52 | – | 4.81 | < 4.52 | < 4.52 | – | < 4.52 | < 4.52 | < 4.52 | < 4.52 | 5.65 | < 4.52 | < 4.52 | < 4.52 | < 4.52 | < 4.52 | < 4.52 | < 4.52 | < 4.52 | < 4.52 | < 4.52 | < 4.52 | < 4.52
CCNC(=O)c1cc(Nc2cc(C)[nH]n2)nc(N2CCN(Cc3ccc(S(=O)(=O)F)cc3)CC2)n1 | – | – | 5.22 | – | < 4.52 | < 4.52 | – | – | 4.8 | – | – | 4.78 | – | – | < 4.52 | – | – | – | – | < 4.52 | – | – | < 4.52 | – | – | < 4.52 | – | < 4.52 | < 4.52 | –
CCNC(=O)c1cc(Nc2cc(C3CC3)[nH]n2)nc(N2CCN(Cc3ccc(S(=O)(=O)F)cc3)CC2)n1 | – | – | 5.52 | – | 4.9 | < 4.52 | – | – | 5.72 | – | – | 5.41 | – | – | < 4.52 | – | – | – | – | < 4.52 | – | – | < 4.52 | – | – | < 4.52 | – | < 4.52 | < 4.52 | –

Source: the supplement of paper PMC12076712
